The record followed here is US20180207228A1, “PEPTIDE COMBINATIONS AND USES THEREOF FOR TREATING GRASS ALLERGY” (ALK-Abelló A/S, priority 2015, published 2018).

Where no end group is shown, it is not given here.

Assay [1] concerns grass pollen allergic donor derived TCL-03 lines. The assay can be described thus: Extended cross-reactivity study, proliferation on TCL03 DK1+DK2 (Study XR2), scoring. On the set-up: Cross-reactivity score: scale not given here. To be noted: for cross-reactivity of homologue / cross-reactivity score of homologue: 2 μg/ml, 20 donors; for cross-reactivity score of homologue: score 0 to 7. The assay is classed as cell-based, human.

The subject of assay [2] is allergen specific T cells. The assay can be described thus: T cell proliferation assay (72 h) on donor derived T cell lines (TCL02/TCL03). It is filed as cell-based, human. To be noted: 2 μg/ml; for donor coverage of homologue peptide compared with native Phleum peptide: TCL-02 DK-2, 21 donors. An excerpt: Isolated PBMCs (peripheral blood mononuclear cells) obtained from the donors described in Example 2 were CD8 depleted and the T cell lines were established by stimulating the cultures with nPhl p1, mix of nPhl p 2 and […] 5 and […] established for each of the donors tested by stimulating with the mixture of above listed allergens. Grass allergic donors were recruited (cohort DK1 including 30 grass allergic individuals, DK2 including 24 grass allergic individuals and US1 including 15 grass allergic individuals). PBMCs were isolated from freshly drawn heparinized blood by gradient centrifugation on lymphoprep (Nycomed, Norway), washed twice and re-suspended in RPMI 1640 medium with HEPES and ultraglutamine (Cambrex, Belgium) supplemented with 5% v/v human AB-serum (Cambrex, Belgium), 100 units/ml penicillin, and 0.1 mg/ml streptomycin (Sigma, St Louis, USA) (referred to as 5% AB-medium). Aliquots of the isolated PBMCs were frozen and were thawed later to stimulate the T cell lines. Additionally either fresh or thawed PBMCs were used as antigen presenting cells (APCs) in the proliferation assay as described later. In some cases the PBMCs were freezed at this stage and thawed later on to continue the experiment as described in the following. The isolated PBMCs (fresh or thawed) were CD8 depleted by MACS magnetic depletion according to the manufacturer's instructions (Miltenyi Biotec, Bergisch Gladbach, Germany). On day 0 the CD8-depleted PBMCs (2×10^6/ml) were stimulated in 1 ml bulk cultures in AB medium in 24 well plates (Nunc, Denmark) with the mixture of natural allergens: nPhl p 1 (0.5 μg/ml), mix of […]). […] On day 14 cells were harvested to obtain T cell line generation 01 (referred to as TCL01). Restimulation of T cell lines were performed in AB-medium with the thawed autologous PBMCs (10^6/well, irradiated 2500 Rad), the above mixture of natural allergens (concentration as mentioned above), and PHA-P (0.5 μg/ml, Difco, Detroit, Mich., USA). rIL-2 was added at day 17, 18 and 19. On day 24 cells were harvested to obtain T cell line generation 02 (referred as TCL02). T cells were isolated, washed, counted and used for T cell proliferation assay as described later. Remaining cells were frozen for later thawing and re-stimulations. The T cell line generation 2 (TCL02) were thawed and were re-stimulated with allogeneic Epstein Bar Virus transformed lymphoblastoid cell lines (EBV) B cells (JY cells, 10^5/well, irradiated 3500 Rad), allogeneic PBMCs (10^6/well, irradiated 2500 Rad), and 0.5 μg/ml PHA-P and subsequent addition of rIL-2 at days 3-5 to generate T cell line generation 03 (referred to as TCL03). […] To summarize ELISpot experiments were carried out at day 14 (with TCL01) and proliferation assay on either day 24 (with TCL02) or at day 34 (with TCL03). […] To ensure that all T cell epitopes regions from the major and intermediate grass allergens of the grass were identified T cell screening was carried out with either overlapping peptides or selected peptides. […] These were overlapping 20-mer peptides spanning the entire full length amino acid sequence of […] and selected high binder peptides from Phl p 4 were tested. Additionally 21, 15 mer peptides were tested which were derived from various group 1 and 5 allergens. Also, 67 peptides from homologous grass allergens were tested. Finally some reference peptides and mixes thereof were also tested. The 15-mer peptides were selected on the basis of predicted and measured promiscuous HLA binding and of sequence homology between known proteins sequences from the relevant pooideae grasses and the Bermuda grass. […] To get comprehensive data from all the donors the peptides were tested in both Fluorospot/Elispot (day 14, TCL01) and proliferation (day 24, TCL02).

The mark [3] stands for this setting: homologue of peptide 217 (Phl p 3), Table 45.
Setting [4] is: homologue of peptide 238 (Phl p 5), Table 48.
[5] abbreviates: homologue of peptide 207 (Phl p 1), Table 43.
The mark [6] stands for this setting: homologue of peptide 285, Table 50.
Setting [7] is: homologue of peptide 206 (Phl p 1), Table 42.
[8] abbreviates: homologue of peptide 211 (Phl p 1), Table 44.
Setting [9] is: homologue of peptide 205 (Phl p 1), Table 41.

Take `CC[C@H](C)[C@H](NC(=O)[C@H](CC(N)=O)NC(=O)[C@H](CC(C)C)NC(=O)[C@@H](NC(=O)[C@H](CC(C)C)NC(=O)[C@@H](NC(=O)[C@H](CCCCN)NC(=O)[C@H](C)NC(=O)[C@H](CC(=O)O)NC(=O)[C@H](CO)NC(=O)CN)[C@@H](C)O)C(C)C)C(=O)N[C@@H](CCCCN)C(=O)N[C@@H](Cc1ccc(O)cc1)C(=O)N[C@H](C(=O)N[C@@H](CCCNC(=N)N)C(=O)N1CCC[C@H]1C(=O)NCC(=O)N[C@@H](CC(=O)O)C(=O)N[C@H](C(=O)N[C@@H](CC(C)C)C(=O)O)[C@@H](C)O)[C@@H](C)O` [compound 328]: in assay [1], the cross-reactivity of homologue entry is listed as “considerable cross-reactivity”. Also, the Cross-reactivity score in assay [1] (setting [3]) came out at 5.

In assay [1] (setting [4]), `CC[C@H](C)[C@H](NC(=O)[C@H](Cc1ccccc1)NC(=O)[C@H](CCCCN)NC(=O)[C@H](Cc1ccc(O)cc1)NC(=O)[C@@H](NC(=O)[C@H](CCC(=O)O)NC(=O)[C@H](Cc1ccc(O)cc1)NC(=O)[C@H](C)NC(=O)CNC(=O)[C@H](C)NC(=O)[C@@H](NC(=O)[C@@H](N)CO)[C@@H](C)O)[C@@H](C)O)C(=O)N1CCC[C@H]1C(=O)N[C@@H](CO)C(=O)N[C@@H](CC(C)C)C(=O)N[C@@H](CCC(=O)O)C(=O)N[C@@H](C)C(=O)N[C@@H](C)C(=O)N[C@H](C(=O)N[C@@H](CCCCN)C(=O)O)C(C)C` [compound 363] yielded a Cross-reactivity score of 5.

Compound `CC[C@H](C)[C@H](NC(=O)[C@H](Cc1ccccc1)NC(=O)[C@H](CCCCN)NC(=O)[C@H](Cc1ccc(O)cc1)NC(=O)[C@@H](NC(=O)[C@H](CCC(=O)O)NC(=O)[C@H](Cc1ccc(O)cc1)NC(=O)[C@H](C)NC(=O)CNC(=O)CNC(=O)[C@@H](NC(=O)[C@@H](N)CO)[C@@H](C)O)[C@@H](C)O)C(=O)N1CCC[C@H]1C(=O)N[C@@H](CO)C(=O)N[C@@H](CC(C)C)C(=O)N[C@@H](CCC(=O)O)C(=O)N[C@@H](C)C(=O)N[C@@H](C)C(=O)N[C@H](C(=O)N[C@@H](CCCCN)C(=O)O)C(C)C` [compound 405] displayed a Cross-reactivity score in assay [1] (setting [4]) of 5.

`CC[C@H](C)[C@H](NC(=O)[C@H](Cc1ccccc1)NC(=O)[C@@H](N)CCCCN)C(=O)N1CCC[C@H]1C(=O)N[C@@H](C)C(=O)N[C@@H](CC(C)C)C(=O)N[C@@H](CCC(=O)O)C(=O)N[C@@H](C)C(=O)N[C@@H](C)C(=O)N[C@H](C(=O)N[C@@H](CCCCN)C(=O)N[C@@H](CCC(N)=O)C(=O)N[C@@H](CO)C(=O)N[C@@H](Cc1ccc(O)cc1)C(=O)N[C@@H](C)C(=O)N[C@@H](C)C(=O)N[C@H](C(=O)N[C@H](C(=O)N[C@@H](C)C(=O)N[C@H](C(=O)O)[C@@H](C)O)C(C)C)[C@@H](C)O)C(C)C` [compound 409] gave a Cross-reactivity score in assay [1] (homologue of peptide 239 (Phl p 5), Table 49) of 7.

In the case of AGELELKFRRVKSEYPEGTK-OH [compound 385], the Cross-reactivity score in assay [1] (setting [5]) was found to be 1.

In the case of AGELELQFRRVKSKYPDGTK-OH [compound 383], the cross-reactivity of homologue result in assay [1] is “considerable cross-reactivity”. The same compound displayed a Cross-reactivity score in assay [1] (setting [5]) of 6.

As to AGELELQFRRVKSKYPEGTK-OH [compound 382], the cross-reactivity of homologue result in assay [1] is recorded as “considerable cross-reactivity”. Moreover, in assay [1] (setting [5]), the Cross-reactivity score was 3.

As to AGELTLQFRRVKSKYPSGTK-OH [compound 318], the Cross-reactivity score in assay [1] (setting [5]) is reported as 0.

In turn, AYESYKFIPTLEAAVKQAYA-OH [compound 413] showed a Cross-reactivity score in assay [1] (setting [6]) of 6.

Regarding AYQSYKFIPALEAAVKQSYA-OH [compound 416], the “cross-reactivity score of homologue” value in assay [1] turned out to be 1. In assay [1] (setting [6]), this compound gave a Cross-reactivity score of 1.

On to ERDFLTSLTKDIPPRQLYAK-OH [compound 398], for which, in assay [1], the “cross-reactivity score of homologue” value came out at 1. In assay [1] (homologue of peptide 222 (Phl p 4), Table 46), this compound yielded a Cross-reactivity score of 1.

For the compound GEEDKLRKAGELMLQFRRVK-OH [compound 376], the Cross-reactivity score in assay [1] (setting [7]) is 0.

Turning to GEEEKLRKAGIIDMKFRRVK-OH [compound 381], in assay [1] (setting [7]), the Cross-reactivity score was found to be 0.5.

In assay [1] (setting [7]), GEEENVRGAGELELQFRRVK-OH [compound 379] gave a Cross-reactivity score of 1.

In assay [1] (setting [7]), GEEQKLRSAGELELKFRRVK-OH [compound 380] came in with a Cross-reactivity score of 0.5.

GEEQKLRSAGELELQFRRVK-OH [compound 377] registered a Cross-reactivity score in assay [1] (setting [7]) of 2.

With GLNDKLRHYGIFDLEFRRVR-OH [compound 378], the Cross-reactivity score in assay [1] (setting [7]) turned out to be 0.

GSDPKKLVLDIKYTRPGDTL-OH [compound 397]: the Cross-reactivity score in assay [1] (setting [3]) is 1.

Consider STGGAYESYKFIPTLEAAVK-OH [compound 404], for which the Cross-reactivity score in assay [1] (setting [4]) is on record as 5.

As for STGGAYQSYKFIPALEAAVK-OH [compound 406], in assay [1] (setting [4]), the Cross-reactivity score came to 4.

In assay [1] (homologue of peptide 204 (Phl p 1), Table 40), TDMNYEQIAAYHFDLAGTAF-OH [compound 370] showed a Cross-reactivity score of 2.

VDKIDAAYKIAATAANAAPA-OH [compound 399]: the Cross-reactivity score in assay [1] (homologue of peptide 235 (Phl p 5), Table 53) came to 5.

Regarding VDKIDAAYKIAATAANAAPAN-OH [compound 417], in assay [1] (homologue of peptide 286 (Phl p 5), Table 52), the Cross-reactivity score is 7.

On to WGAIWRIDPPKPLKGPFTIR-OH [compound 391], for which, in assay [1] (setting [8]), the Cross-reactivity score is 0.5.

Take WGAIWRIDTPDKLTGPFTVR-NH2 [compound 258]: in assay [2] (TCL03-DK1 and DK2, 27 donors), the “T cell coverage of modified peptide compared to the parent peptide” value is reported as “markedly increased T cell coverage”.

For the compound WGAIWRKDSDKPIKFPVTVQ-OH [compound 396], the Cross-reactivity score in assay [1] (setting [8]) was 0.5.

With WGAIWRMDTPKALVPPFSIR-OH [compound 394], in assay [1] (setting [8]), the Cross-reactivity score came out at 1.

Take WGAIWRVDTPDKLTGPFTVR-OH [compound 392]: the cross-reactivity of homologue entry in assay [1] was “considerable cross-reactivity”. The Cross-reactivity score in assay [1] (setting [8]) is recorded as 5.

With WGAVWRIDTPDKLTGPFTVR-OH [compound 309], the “donor coverage of homologue peptide compared with native Phleum peptide” value in assay [2] is “low in donor coverage”.

Turning to WGAVWRIDTPDKLTGPFTVR-OH [compound 393], the cross-reactivity of homologue entry in assay [1] is “considerable cross-reactivity”. This compound also displayed a Cross-reactivity score in assay [1] (setting [8]) of 4.

Consider WGSIWRVDTPDKLTGPFTVR-OH [compound 395], for which the cross-reactivity of homologue result in assay [1] is on record as “considerable cross-reactivity”. In assay [1] (setting [8]), the Cross-reactivity score stood at 3.

With YGIFDLEFRRVRSKYQGGQK-OH [compound 384], the Cross-reactivity score in assay [1] (setting [5]) is recorded as 0.5.

For YHFDLAGTAFGAMAKKGEEE-OH [compound 375], the cross-reactivity of homologue entry in assay [1] is given as “very high reactivity”. Besides, the Cross-reactivity score in assay [1] (setting [9]) is 7.

For the compound YHFDLSGHAFGSMAKKGEEE-OH [compound 373], in assay [1], the cross-reactivity of homologue result is “very high reactivity”. The Cross-reactivity score in assay [1] (setting [9]) amounted to 6.

Turning to YHFDLSGHAFGSMAKKGEEQ-OH [compound 303], in assay [2], the “donor coverage of homologue peptide compared with native Phleum peptide” value is “comparable to the native peptides”.

Consider YHFDLSGHAFGSMAKKGEEQ-OH [compound 372], for which the cross-reactivity of homologue entry in assay [1] is on record as “very high reactivity”. In assay [1] (setting [9]), this compound registered a Cross-reactivity score of 7.

YHFDLSGKAFGAMAKKGEED-OH [compound 371] came in with a Cross-reactivity score in assay [1] (setting [9]) of 2.

YHFDLSGKAFGAMAKKGEEQ-OH [compound 374]: the Cross-reactivity score in assay [1] (setting [9]) was 3.

As for YHFDLSGKAFGAMAKKGQED-OH [compound 316], the “donor coverage of homologue peptide compared with native Phleum peptide” value in assay [2] is “comparable to the native peptides”.
